Reference: US20220313701A1, “MODULATORS OF TREX1” (Constellation Pharmaceuticals, Inc., priority 2019, published 2022)

Tests used:
[1] = target: T1, human TREX2 (residues M44-A279) (Homo sapiens, UniProt Q9BQ50); assay: TREX2 Biochemical Assay (fluorescence assay, degradation of dsDNA substrate); details: 2.5 nM TREX2, 60 nM dsDNA substrate, 25 minutes at room temperature
T1 construct: human TREX2 (residues M44-A279, expressed in E. coli); His-Tev (His tag with TEV site) (N); made in house; host or cells: E. coli
T1 sequence (Q9BQ50 44-279 isoform Q9BQ50-1): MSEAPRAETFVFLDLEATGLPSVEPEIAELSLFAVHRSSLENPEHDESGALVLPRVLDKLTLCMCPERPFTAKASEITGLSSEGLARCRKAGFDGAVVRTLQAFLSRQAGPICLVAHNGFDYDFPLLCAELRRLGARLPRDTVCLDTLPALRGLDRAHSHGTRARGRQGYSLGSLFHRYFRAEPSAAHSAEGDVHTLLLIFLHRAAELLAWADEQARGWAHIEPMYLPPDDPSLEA
How it was run: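 Final conditions: 2.5 nM His-Tev-tagged TREX2 (E. coli-expressed), 60 nM fluorophore/quencher-labelled dsDNA, 50 mM Tris pH 7.4, 150 mM NaCl, 100 mM MgCl2, 1% DMSO; 10-point compound dose-response. Incubated 25 min at room temperature, then EDTA-quenched; fluorescence read at ex 570/em 615 nm. IC50 from four-parameter fit against pre-quenched and no-inhibitor controls.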

full length human TREX1 = target: T2, full length human TREX1 (Homo sapiens, UniProt Q9NSU2); assay: TREX1 Biochemical Assay (fluorescence assay, degradation of dsDNA substrate); details: 150 pM TREX1, 60 nM dsDNA substrate, 25 minutes at room temperature
T2 construct: N-terminally His-Tev tagged full length human TREX1; His-Tev (His tag with TEV site) (N); made in house; host or cells: E. coli
T2 sequence (Q9NSU2 1-314): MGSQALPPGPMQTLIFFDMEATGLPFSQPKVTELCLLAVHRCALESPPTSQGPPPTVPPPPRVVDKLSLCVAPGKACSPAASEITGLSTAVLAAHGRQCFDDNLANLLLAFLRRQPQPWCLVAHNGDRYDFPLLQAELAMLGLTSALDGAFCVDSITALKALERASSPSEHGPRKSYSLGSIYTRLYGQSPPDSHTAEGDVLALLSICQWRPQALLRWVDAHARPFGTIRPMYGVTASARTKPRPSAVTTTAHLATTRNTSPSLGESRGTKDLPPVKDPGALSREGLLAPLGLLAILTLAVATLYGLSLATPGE
How it was run: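 N-terminally His-Tev-tagged enzyme expressed in E. coli, 150 pM, with 60 nM dual-labelled dsDNA (TEX615/quencher) in pH 7.4 Tris buffer with MgCl2, 1% DMSO; 10-point dose-response, 25 min at room temperature, then EDTA quench. Fluorescence at 615 nm (excitation 570 nm); IC50 from four-parameter fit against pre-quenched and no-inhibitor controls.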

| Structure (SMILES) | IC50 [1] [nM] | IC50 (full length human TREX1) [nM] |
| --- | --- | --- |
| Cc1cc(C2(O)CCN(c3cncc(-c4cn(C)nc4C)n3)CC2)ccc1F [Example 92, 1-(6-(1,3-dimethyl-1H-pyrazol-4-yl)pyrazin-2-yl)-4-(4-fluoro-3-methylphenyl)piperidin-4-ol] | > 100000 | 100 to 1000 |
| Cc1nn(C)cc1-c1cc(C(N)=O)cc(N2CCC(O)(c3cc(F)c(F)c(F)c3)CC2)n1 [Example 93, 2-(1,3-dimethyl-1H-pyrazol-4-yl)-6-(4-hydroxy-4-(3,4,5-trifluorophenyl)piperidin-1-yl)isonicotinamide] | > 100000 | 100 to 1000 |
| Cc1nn(C)cc1-c1cc(C(N)=O)cc(N2CCC(O)(c3ccc(F)c(Cl)c3)CC2)n1 [Example 94, 2-(4-(3-chloro-4-fluorophenyl)-4-hydroxypiperidin-1-yl)-6-(1,3-dimethyl-1H-pyrazol-4-yl)isonicotinamide] | > 100000 | 100 to 1000 |
| Cc1nn(C)cc1-c1nnc(N2CCC(O)(c3ccc(F)c(F)c3)CC2)s1 [Example 95, 4-(3,4-difluorophenyl)-1-(5-(1,3-dimethyl-1H-pyrazol-4-yl)-1,3,4-thiadiazol-2-yl)piperidin-4-ol] | > 100000 | 1000 to 10000 |
| Cc1nn(C)cc1-c1nsc(N2CCC(O)(c3ccc(F)c(F)c3)CC2)n1 [Example 96, 4-(3,4-difluorophenyl)-1-(3-(1,3-dimethyl-1H-pyrazol-4-yl)-1,2,4-thiadiazol-5-yl)piperidin-4-ol] | > 100000 | 100 to 1000 |
| Cc1nn(C)cc1-c1csc(N2CCC(O)(c3ccc(F)c(F)c3)CC2)n1 [Example 97, 4-(3,4-difluorophenyl)-1-(4-(1,3-dimethyl-1H-pyrazol-4-yl)thiazol-2-yl)piperidin-4-ol] | > 100000 | 1000 to 10000 |
| Cc1nn(C)cc1-c1nc(N2CCC(O)(c3ccc(F)c(F)c3)CC2)sc1C(N)=O [Example 98, 2-(4-(3,4-difluorophenyl)-4-hydroxypiperidin-1-yl)-4-(1,3-dimethyl-1H-pyrazol-4-yl)thiazole-5-carboxamide] | > 100000 | 100 to 1000 |
| Cc1nn(C)cc1-c1c[nH]c(=O)c(N2CCC(O)(c3ccc(F)c(F)c3)CC2)n1 [Example 99, 3-(4-(3,4-difluorophenyl)-4-hydroxypiperidin-1-yl)-5-(1,3-dimethyl-1H-pyrazol-4-yl)pyrazin-2(1H)-one] | > 100000 | 100 to 1000 |
| Cc1nc(-c2cn(C)nc2-c2ccccc2)cc(N2CCC(O)(c3ccc(F)c(F)c3)CC2)n1 [Example 100, 4-(3,4-difluorophenyl)-1-(2-methyl-6-(1-methyl-3-phenyl-1H-pyrazol-4-yl)pyrimidin-4-yl)piperidin-4-ol] | > 100000 | 100 to 1000 |
| Cc1nc(-c2cn(C)nc2Cc2ccccc2)cc(N2CCC(O)(c3ccc(F)c(F)c3)CC2)n1 [Example 101, 1-(6-(3-benzyl-1-methyl-1H-pyrazol-4-yl)-2-methylpyrimidin-4-yl)-4-(3,4-difluorophenyl)piperidin-4-ol] | > 100000 | 100 to 1000 |
| Cc1nc(N2CCC(O)(c3ccc(F)c(F)c3)CC2)cc(N2CCOC[C@H]2c2ccccc2)n1 [Example 104, (R)-4-(3,4-difluorophenyl)-1-(2-methyl-6-(3-phenylmorpholino)pyrimidin-4-yl)piperidin-4-ol] | > 100000 | 1000 to 10000 |
| Cc1nc(N2CCC(O)(c3ccc(F)c(F)c3)CC2)cc(N2CCOC[C@@H]2c2ccccc2)n1 [Example 105, (S)-4-(3,4-difluorophenyl)-1-(2-methyl-6-(3-phenylmorpholino)pyrimidin-4-yl)piperidin-4-ol] | > 100000 | 1000 to 10000 |
| Cc1nc(N2CCC(O)(c3ccc(F)c(F)c3)CC2)cc(-n2ccnc2-c2ccccn2)n1 [Example 106, 4-(3,4-difluorophenyl)-1-(2-methyl-6-(2-(pyridin-2-yl)-1H-imidazol-1-yl)pyrimidin-4-yl)piperidin-4-ol] | > 100000 | 1000 to 10000 |
| Cc1nc(N2CCC(O)(c3ccc(F)c(F)c3)CC2)cc(-n2c(C)cnc2-c2ccccn2)n1 [Example 107, 4-(3,4-difluorophenyl)-1-(2-methyl-6-(5-methyl-2-(pyridin-2-yl)-1H-imidazol-1-yl)pyrimidin-4-yl)piperidin-4-ol] | > 100000 | 1000 to 10000 |
| Cc1nc(N2CCC(O)(c3ccc(F)c(F)c3)CC2)cc(N(C)C2(c3ccccn3)CC2)n1 [Example 108, 4-(3,4-difluorophenyl)-1-(2-methyl-6-(methyl(1-(pyridin-2-yl)cyclopropyl)amino)pyrimidin-4-yl)piperidin-4-ol] | > 100000 | 100 to 1000 |
